The values that follow come from paper PMC5428354, “Screening of a natural compound library identifies emodin, a natural compound from Rheum palmatum Linn that inhibits DPP4” (PeerJ, 2017).

The first experiment deals with DPP4 (Homo sapiens, UniProt P27487). Nature of the experiment: DPP4 activity assay (DPP4 inhibitor screening assay kit, Cayman).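 Note: fluorescence read at excitation 360 nm and emission 460 nm after the enzyme reaction ran 30 min at 37 °C in a 96-well plate.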 It counts as biochemical. More on the design: purchased Cayman Chemical, Ann Arbor, MI, USA. The conditions noted are these: 10 µM; control mean 100.0; Figure 1A raw data.
Sequence of DPP4 (P27487 whole entry): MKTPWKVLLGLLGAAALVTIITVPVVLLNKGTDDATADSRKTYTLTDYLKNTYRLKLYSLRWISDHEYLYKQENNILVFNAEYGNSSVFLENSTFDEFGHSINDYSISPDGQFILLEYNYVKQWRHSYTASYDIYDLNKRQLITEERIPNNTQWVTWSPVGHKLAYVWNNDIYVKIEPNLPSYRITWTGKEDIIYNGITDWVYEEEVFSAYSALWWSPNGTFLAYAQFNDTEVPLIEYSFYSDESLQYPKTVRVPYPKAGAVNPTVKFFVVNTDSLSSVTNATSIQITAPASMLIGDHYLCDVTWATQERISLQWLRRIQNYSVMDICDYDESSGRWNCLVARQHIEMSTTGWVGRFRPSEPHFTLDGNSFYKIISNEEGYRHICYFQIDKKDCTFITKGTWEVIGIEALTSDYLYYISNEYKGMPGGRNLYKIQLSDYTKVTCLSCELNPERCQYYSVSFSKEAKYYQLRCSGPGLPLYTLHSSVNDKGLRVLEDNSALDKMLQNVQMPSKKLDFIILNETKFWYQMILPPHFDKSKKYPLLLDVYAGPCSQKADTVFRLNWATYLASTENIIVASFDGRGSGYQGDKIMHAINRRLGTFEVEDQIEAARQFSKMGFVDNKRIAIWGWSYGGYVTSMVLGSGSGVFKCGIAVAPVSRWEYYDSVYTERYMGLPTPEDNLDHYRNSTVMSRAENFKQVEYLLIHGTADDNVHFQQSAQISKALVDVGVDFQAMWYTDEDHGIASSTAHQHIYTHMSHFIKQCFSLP
With `CN1CC[C@]23c4ccccc4N[C@H]1[C@]21CCN(C)[C@H]3Nc2ccccc21` [Calycanthine], the “DPP4 activity in library screen, Exp 1” value was 98.1; the “DPP4 activity in library screen, Exp 2” value is on record as 98.8; the “DPP4 activity in library screen, Exp 3” value was determined as 109.2.
For Methyl-Hesperidin, the “DPP4 activity in library screen, Exp 1” value amounted to 98.7; the “DPP4 activity in library screen, Exp 2” value came out at 101.2; the “DPP4 activity in library screen, Exp 3” value was determined as 74.4.
Consider `O=c1c(O)c(-c2cc(O)c(O)c(O)c2)oc2cc(O)cc(O)c12` [Myricetin], for which the “DPP4 activity in library screen, Exp 2” value came to 57.5.
As to `COC12c3c(C)cc(O)c4c(=O)occ(c34)C(=O)C1C13COC(=O)c4c(O)cc(C)c(c41)C(=O)C2C3OC(C)=O` (stereo not shown) [duclauxin], the “DPP4 activity in library screen, Exp 1” value is 98.3; the “DPP4 activity in library screen, Exp 2” value is recorded as 99.5; the “DPP4 activity in library screen, Exp 3” value was 163.1.
In the case of `CCC1=C[C@@H]2CN3CCc4c([nH]c5ccccc45)[C@@](C(=O)OC)(C2)[C@@H]13` [Catharanthine], the “DPP4 activity in library screen, Exp 1” value was found to be 117.2; the “DPP4 activity in library screen, Exp 2” value worked out at 93.7; the “DPP4 activity in library screen, Exp 3” value was 139.2.
The like results for `CC(=O)c1c(O)c(C)c(O)c2c1OC1=CC(=O)C(C(C)=O)C(=O)C12C` (single isomer, unassigned; (+)) [(+)-Usniacin] were, in that order, 88.7, 90.4 and 89.7.
The matching figures for `COc1cc(/C=C/C(=O)O)ccc1O` [Ferulic Acid]: 97.5, 83.7 and 98.
The like results for `C[C@@H]1O[C@@H](O)[C@H](O)[C@H](O)[C@H]1O.O` [L-(+)-Rhamnose Monohydrate] were, in that order, 92.8, 91.1 and 93.

Staying with this experiment, now noted: 10 µM; control mean 100.0; mean of Exp 1-3.
For the compound `CN1CC[C@]23c4ccccc4N[C@H]1[C@]21CCN(C)[C@H]3Nc2ccccc21` [Calycanthine], the “DPP4 activity in library screen, Mean” value is 102.0.
The same measure, in the same setting: as for Methyl-Hesperidin, the figure is 91.4; as for `O=c1c(O)c(-c2cc(O)c(O)c(O)c2)oc2cc(O)cc(O)c12` [Myricetin], 57.9.
As to `COC12c3c(C)cc(O)c4c(=O)occ(c34)C(=O)C1C13COC(=O)c4c(O)cc(C)c(c41)C(=O)C2C3OC(C)=O` (stereo not shown) [duclauxin], the “DPP4 activity in library screen, Mean” value was determined as 120.3.
The same measure, in the same setting: as for `CCC1=C[C@@H]2CN3CCc4c([nH]c5ccccc45)[C@@](C(=O)OC)(C2)[C@@H]13` [Catharanthine], the figure is 116.7.
For the compound `CC(=O)c1c(O)c(C)c(O)c2c1OC1=CC(=O)C(C(C)=O)C(=O)C12C` (single isomer, unassigned; (+)) [(+)-Usniacin], the “DPP4 activity in library screen, Mean” value came to 89.6.
Same read-out and setting: as for `COc1cc(/C=C/C(=O)O)ccc1O` [Ferulic Acid], the figure is 93.1; as for `C[C@@H]1O[C@@H](O)[C@H](O)[C@H](O)[C@H]1O.O` [L-(+)-Rhamnose Monohydrate], 92.3.

The same experiment, now with this note: 0.5 h, 10 µM; control mean 100.0; Figure 1A raw data; read-out: DPP4 activity in library screen, Exp 1.
Turning to `CCCC[N+]1(C)[C@@H]2C[C@@H](OC(=O)[C@H](CO)c3ccccc3)C[C@H]1[C@@H]1O[C@@H]12` (stereo partly shown) [Butylscopolamine bromide], the remaining activity at 10 µM came to 97.5%.
Regarding `C[C@H]1C(=O)O[C@@H]2CCN3CC=C(COC(=O)[C@](C)(O)[C@]1(C)O)[C@H]23` [Monocrotaline], the remaining activity at 10 µM was found to be 70.9%.
Consider `COc1ccc2ccc(=O)oc2c1CC=C(C)C` [Osthole], for which the remaining activity at 10 µM was determined as 93.1%.
Same read-out and setting: as for `O=C1c2c(O)cc(O)cc2OC(c2ccc(O)c(O)c2)C1O` (stereo not shown) [Taxifolin (Dihydroquercetin), Taxifolin], the figure is 93.8%; as for `CC1(C)O[C@H]2CC(=O)OC[C@]23[C@H]2CC[C@@]4(C)[C@H](c5ccoc5)OC(=O)[C@H]5O[C@]54[C@]2(C)C(=O)C[C@@H]13` [Limonin], 104%.
For `O=c1c(O)c(-c2ccc(O)cc2)oc2cc(O)cc(O)c12` [Kaempferol], the remaining activity at 10 µM came to 52%.
As to `O=C(O)Cc1c[nH]c2ccccc12` [Indole-3-acetic acid], the remaining activity at 10 µM came out at 115%.

The experiment is the same for the next values; noted with them: 0.5 h, 10 µM; control mean 100.0; Figure 1A raw data; read-out: DPP4 activity in library screen, Exp 2.
Turning to `CCCC[N+]1(C)[C@@H]2C[C@@H](OC(=O)[C@H](CO)c3ccccc3)C[C@H]1[C@@H]1O[C@@H]12` (stereo partly shown) [Butylscopolamine bromide], the remaining activity at 10 µM is 98.7%.
The same measure, in the same setting: the result for `C[C@H]1C(=O)O[C@@H]2CCN3CC=C(COC(=O)[C@](C)(O)[C@]1(C)O)[C@H]23` [Monocrotaline] reads 95.8%.
With `COc1ccc2ccc(=O)oc2c1CC=C(C)C` [Osthole], the remaining activity at 10 µM was 95.2%.
On the same count and under the same terms, as for `O=C1c2c(O)cc(O)cc2OC(c2ccc(O)c(O)c2)C1O` (stereo not shown) [Taxifolin (Dihydroquercetin), Taxifolin], the figure is 83.2%; as for `CC1(C)O[C@H]2CC(=O)OC[C@]23[C@H]2CC[C@@]4(C)[C@H](c5ccoc5)OC(=O)[C@H]5O[C@]54[C@]2(C)C(=O)C[C@@H]13` [Limonin], 106%; as for `O=c1c(O)c(-c2ccc(O)cc2)oc2cc(O)cc(O)c12` [Kaempferol], 72.5%.
Regarding `O=C(O)Cc1c[nH]c2ccccc12` [Indole-3-acetic acid], the remaining activity at 10 µM worked out at 108%.

The same experiment, now with this note: 0.5 h, 10 µM; control mean 100.0; Figure 1A raw data; read-out: DPP4 activity in library screen, Exp 3.
Consider `CCCC[N+]1(C)[C@@H]2C[C@@H](OC(=O)[C@H](CO)c3ccccc3)C[C@H]1[C@@H]1O[C@@H]12` (stereo partly shown) [Butylscopolamine bromide], for which the remaining activity at 10 µM turned out to be 78.2%.
As for `C[C@H]1C(=O)O[C@@H]2CCN3CC=C(COC(=O)[C@](C)(O)[C@]1(C)O)[C@H]23` [Monocrotaline], the remaining activity at 10 µM amounted to 85.1%.
Still for that read-out and setting: the result for `COc1ccc2ccc(=O)oc2c1CC=C(C)C` [Osthole] reads 87.3%; that for `O=C1c2c(O)cc(O)cc2OC(c2ccc(O)c(O)c2)C1O` (stereo not shown) [Taxifolin (Dihydroquercetin), Taxifolin], 67.9%; that for `CC1(C)O[C@H]2CC(=O)OC[C@]23[C@H]2CC[C@@]4(C)[C@H](c5ccoc5)OC(=O)[C@H]5O[C@]54[C@]2(C)C(=O)C[C@@H]13` [Limonin], 91.4%.
`O=c1c(O)c(-c2ccc(O)cc2)oc2cc(O)cc(O)c12` [Kaempferol]: the remaining activity at 10 µM was found to be 70.4%.
The same measure, in the same setting: the result for `O=C(O)Cc1c[nH]c2ccccc12` [Indole-3-acetic acid] reads 121%.

The same experiment, now with this note: 0.5 h, 10 µM; control mean 100.0; mean of Exp 1-3; read-out: DPP4 activity in library screen, Mean.
Take `CCCC[N+]1(C)[C@@H]2C[C@@H](OC(=O)[C@H](CO)c3ccccc3)C[C@H]1[C@@H]1O[C@@H]12` (stereo partly shown) [Butylscopolamine bromide]: the remaining activity at 10 µM stood at 91.5%.
Turning to `C[C@H]1C(=O)O[C@@H]2CCN3CC=C(COC(=O)[C@](C)(O)[C@]1(C)O)[C@H]23` [Monocrotaline], the remaining activity at 10 µM worked out at 83.9%.
Take `COc1ccc2ccc(=O)oc2c1CC=C(C)C` [Osthole]: the remaining activity at 10 µM amounted to 91.9%.
On the same count and under the same terms, as for `O=C1c2c(O)cc(O)cc2OC(c2ccc(O)c(O)c2)C1O` (stereo not shown) [Taxifolin (Dihydroquercetin), Taxifolin], the figure is 81.6%; as for `CC1(C)O[C@H]2CC(=O)OC[C@]23[C@H]2CC[C@@]4(C)[C@H](c5ccoc5)OC(=O)[C@H]5O[C@]54[C@]2(C)C(=O)C[C@@H]13` [Limonin], 101%.
Same read-out and setting: as for `O=c1c(O)c(-c2ccc(O)cc2)oc2cc(O)cc(O)c12` [Kaempferol], the figure is 65%; as for `O=C(O)Cc1c[nH]c2ccccc12` [Indole-3-acetic acid], 115%.
